Assays:
[1] = biological target: Sodium-dependent dopamine transporter (Homo sapiens, UniProt Q01959); experiment: Displacement of [125I]-IPT from DAT transfected in pig LLC-PK1 cells by radioligand competition binding assay; format: cell-based
[2] = Selectivity ratio of Ki for SERT to Ki for DAT
[3] = biological target: Sodium-dependent noradrenaline transporter (Homo sapiens, UniProt P23975); experiment: Displacement of [125I]-INXT from NET transfected in pig LLC-PK1 cells by radioligand competition binding assay; format: cell-based
Sequence of Sodium-dependent noradrenaline transporter (P23975 whole entry): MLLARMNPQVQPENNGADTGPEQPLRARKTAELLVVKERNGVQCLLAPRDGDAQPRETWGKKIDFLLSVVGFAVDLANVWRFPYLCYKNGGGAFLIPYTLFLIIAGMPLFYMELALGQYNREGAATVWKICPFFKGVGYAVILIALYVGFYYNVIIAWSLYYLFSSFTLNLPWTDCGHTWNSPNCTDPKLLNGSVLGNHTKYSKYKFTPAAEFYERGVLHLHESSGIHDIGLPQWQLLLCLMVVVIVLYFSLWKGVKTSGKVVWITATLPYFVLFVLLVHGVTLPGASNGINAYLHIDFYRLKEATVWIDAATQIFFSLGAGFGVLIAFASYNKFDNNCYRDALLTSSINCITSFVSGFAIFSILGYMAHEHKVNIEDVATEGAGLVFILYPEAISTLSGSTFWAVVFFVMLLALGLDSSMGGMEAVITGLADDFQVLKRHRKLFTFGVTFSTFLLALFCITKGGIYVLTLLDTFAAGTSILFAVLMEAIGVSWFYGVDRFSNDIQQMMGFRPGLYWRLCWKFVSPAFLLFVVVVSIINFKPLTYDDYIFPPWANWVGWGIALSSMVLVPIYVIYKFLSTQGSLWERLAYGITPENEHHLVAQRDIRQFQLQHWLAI

[4] = Selectivity ratio of Ki for NET to Ki for DAT
[5] = biological target: Sodium-dependent serotonin transporter (Homo sapiens, UniProt P31645); experiment: Displacement of [125I]-IDAM from SERT transfected in pig LLC-PK1 cells by radioligand competition binding assay; format: cell-based
Sequence of Sodium-dependent serotonin transporter (P31645 whole entry): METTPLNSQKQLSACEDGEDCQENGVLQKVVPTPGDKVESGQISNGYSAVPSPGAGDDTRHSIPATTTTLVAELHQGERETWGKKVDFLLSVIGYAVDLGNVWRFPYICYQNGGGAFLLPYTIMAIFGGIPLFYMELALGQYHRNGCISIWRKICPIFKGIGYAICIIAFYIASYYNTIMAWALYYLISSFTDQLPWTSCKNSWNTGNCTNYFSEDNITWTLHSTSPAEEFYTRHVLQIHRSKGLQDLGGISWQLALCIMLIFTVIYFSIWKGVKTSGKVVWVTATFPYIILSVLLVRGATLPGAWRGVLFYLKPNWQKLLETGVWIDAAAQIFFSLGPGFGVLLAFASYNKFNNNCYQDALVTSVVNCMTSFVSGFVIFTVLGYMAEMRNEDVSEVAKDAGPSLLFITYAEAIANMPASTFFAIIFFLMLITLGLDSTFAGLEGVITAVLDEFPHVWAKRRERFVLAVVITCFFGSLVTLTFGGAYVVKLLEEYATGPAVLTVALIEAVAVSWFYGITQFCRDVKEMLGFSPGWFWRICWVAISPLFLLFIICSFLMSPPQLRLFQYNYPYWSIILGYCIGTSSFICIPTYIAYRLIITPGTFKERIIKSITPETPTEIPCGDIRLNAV

Sequence of Sodium-dependent dopamine transporter (Q01959 whole entry): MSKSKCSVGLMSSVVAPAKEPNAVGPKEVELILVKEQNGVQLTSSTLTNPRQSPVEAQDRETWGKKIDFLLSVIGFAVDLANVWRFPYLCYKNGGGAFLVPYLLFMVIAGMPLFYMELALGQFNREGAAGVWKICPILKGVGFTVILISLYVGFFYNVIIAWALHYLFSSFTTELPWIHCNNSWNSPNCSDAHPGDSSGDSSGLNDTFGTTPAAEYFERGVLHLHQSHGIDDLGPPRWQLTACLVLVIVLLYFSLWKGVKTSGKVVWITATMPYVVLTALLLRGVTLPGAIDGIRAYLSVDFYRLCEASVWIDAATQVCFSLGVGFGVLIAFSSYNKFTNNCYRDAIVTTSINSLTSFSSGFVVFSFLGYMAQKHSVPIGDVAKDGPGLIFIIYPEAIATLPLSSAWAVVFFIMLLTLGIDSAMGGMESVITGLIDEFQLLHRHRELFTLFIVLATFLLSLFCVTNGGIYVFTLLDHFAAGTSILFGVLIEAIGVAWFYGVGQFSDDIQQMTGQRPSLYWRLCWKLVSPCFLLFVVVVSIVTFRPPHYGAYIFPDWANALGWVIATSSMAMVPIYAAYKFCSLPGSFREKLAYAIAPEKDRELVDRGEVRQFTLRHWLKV

SMILES	Ki [1] [nM]	Ratio Ki [2]	Ki [3] [nM]	Ratio Ki [4]	Ki [5] [nM]
COC(=O)[C@@H]1C2CCC(C[C@@H]1c1ccc(Br)cc1)N2C (stereo partly specified)	3.5				
CN1C2CCC1[C@@H](CNc1cccc(Br)n1)[C@@H](c1ccc(Cl)cc1)C2 (stereo partly specified)	5.6	1.3	29.1	5.2	7.4
CN1C2CCC1[C@@H](C(=O)Nc1ccc(Br)nc1)[C@@H](c1ccc(Cl)cc1)C2 (stereo partly specified)	106	144	16200	153	15300
CN1C2CCC1[C@@H](C(=O)Nc1cccc(Br)n1)[C@@H](c1ccc(Cl)cc1)C2 (stereo partly specified)	86.7	37	3850	44	3210
CN1C2CCC1[C@@H](CNc1ccnc(Br)c1)[C@@H](c1ccc(Cl)cc1)C2 (stereo partly specified)	7.9	1.4	27.7	3.5	11
CN1C2CCC1[C@@H](C(=O)Nc1ccnc(Br)c1)[C@@H](c1ccc(Cl)cc1)C2 (stereo partly specified)	82.2	125	12100	147	10300

From ChEMBL document CHEMBL1914398, “Synthesis and evaluation of novel N-fluoropyridyl derivatives of tropane as potential PET imaging agents for the dopamine transporter” (Bioorg Med Chem Lett, 2011)
